The assay is described as follows: TarO Biochemical Enzymatic Assay: The TarO biochemical enzymatic assay is a liquid chromatography-mass spectroscopy (LC-MS) based end point assay that measures C55-P-P-GlcNAc (LIPID III) production. The TarO biochemical enzymatic assay was performed in a 384-well microtiter plate (Labcyte) with a reaction volume of 20 μl. The reaction mix contained 0.1 μgs/μl of TarO membrane preparation derived from MRSA COL (lysostaphin/lysozyme treated, centrifuged at 40K rpm, and re-suspended in 50 mM Tris pH 7.5, 10 mM MgCl2), 1500 μM UDP-GlcNAc, x 75 μM C55-P substrates in 83 mM Tris pH 8.0, 6.7 mM MgCl2, 6 mM CHAPS, and 8.3% DMSO buffer. The enzyme reactions were quenched by extraction in 40 μl of 1-pentanol containing 0.04 μM […] C55-PP-GlcNAc, which was used as an internal standard. A 10 μl volume of the quenched reaction mixture (pH≈3) from each well was injected onto a reversed-phase column (C4, 5 m, 2.1×50 mm, Thermo Scientific Biobacis-4) and eluted using a NH4Ac/H2O/MeOH gradient (solvent A: 10 mM NH4Ac in water, pH 5.6; solvent B: NH4Ac (1 M)-Isopropanol (1:90, v/v, pH 5.6). The HPLC conditions were as follows: 15% solvent B for 15 seconds followed by a gradient to 90% solvent B in 90 seconds; then solvent B was kept at 95% for 10 seconds followed by a gradient to 8% solvent B in 0.1 minute. The column was then equilibrated at 15% B for 1 minute before the next injection. The flow rate was kept constant at 600 μl/minute. Mass spectrometric detection was carried out in the negative-ion mode using selected reaction monitoring (SRM). Typical mass spectrometric conditions were as follows: heated capillary temperature, 210° C.; spray voltage, 2500 V; desolvation gas (N2), 40 l/h; auxiliary gas (N2), 35 l/h. Selected ion current (SIC) chromatograms of C55-PP-GlcNAc and internal standard 15C C55-PP-GlcNAc were plotted and integrated using LCQuan incorporated in Xcalibur software (ThermoFinnigan). The linearity of C55-PP-GlcNAc concentration versus mass spectrometric signal (AC55-PP-GlcNAc/A15C-C55-PP-GlcNAc) was determined with purified C55-PP-GlcNAc. The IC50 values were calculated using the nonlinear regression analysis (sigmoidal dose response fit allowing for a variable slope) of percent inhibition data with minimum and maximum values set to 0 and 100 percent.
For orientation: IC50 means the concentration that inhibits the measured activity by half. `O=C(NCc1cncc2ccccc12)N1C(=O)O[C@H](c2cc(F)cc(C(F)(F)F)c2)[C@@H]1CO`: the IC50 was 0.21 µM. Take `C[C@H]1[C@@H](c2cc(C(F)(F)F)cc(C(F)(F)F)c2)OC(=O)N1C(=O)Cc1cccc2ccccc12`: the IC50 was 0.13 µM. As for `C[C@H]1[C@@H](c2cc(C(F)(F)F)cc(C(F)(F)F)c2)OC(=O)N1C(=O)CCc1cccc2ccccc12`, the figure is 0.01 µM. With `O=C(NCc1cncc2ccccc12)N1C(=O)O[C@H](c2cc(F)cc(C(F)(F)F)c2)[C@@H]1CCO` the figure was 4.77 µM. Consider `C[C@H]1[C@@H](c2cc(C(F)(F)F)cc(C(F)(F)F)c2)OC(=O)N1C(=O)CCc1cncc2ccccc12`, for which the IC50 is 0.01 µM. As for `COc1cc(C(F)(F)F)cc([C@H]2OC(=O)N(C(=O)NCc3cncc4cccnc34)[C@H]2CO)n1`, the IC50 is 0.88 µM. With `C[C@H]1[C@@H](c2cc(N3CCC(F)(F)C3)cc(C(F)(F)F)c2)OC(=O)N1C(=O)NCc1cccc2cncnc12` the figure was 0.26 µM.

Turning to `CC[C@H]1[C@@H](c2cc(C(F)(F)F)cc(C(F)(F)F)c2)OC(=O)N1C(=O)CCc1cncc2ccccc12`, the IC50 is 0.06 µM.

In the case of `Cc1ccc2c(n1)N(CCC(=O)N1C(=O)O[C@H](c3cc(F)cc(C(F)(F)F)c3)[C@@H]1C)CCO2`, the IC50 is 0.24 µM. As for `O=C(CCc1cncc2ccccc12)N1C[C@H](c2cc(C(F)(F)F)cc(C(F)(F)F)c2)OC1=O`, the figure is 0.54 µM; as for `COc1cccc([C@H]2OC(=O)N(C(=O)CCc3cccc4ccccc34)[C@H]2C)n1`, 3 µM. With `COc1cc([C@H]2OC(=O)N(C(=O)NCc3cccc4nccnc34)[C@H]2CO)cc(C(F)(F)F)c1`, the IC50 is 0.45 µM. On to `Cc1cc(C)cc([C@H]2OC(=O)N(C(=O)CCc3cncc4ccccc34)[C@H]2C)c1`, for which the IC50 is 1.07 µM. Take `C[C@H]1[C@@H](c2cccc(Br)n2)OC(=O)N1C(=O)CCc1cccc2ccccc12`: the IC50 was 0.48 µM. Turning to `COc1ccncc1CNC(=O)N1C(=O)O[C@H](c2cc(C(F)(F)F)cc(C(F)(F)F)c2)[C@@H]1CO`, the IC50 was 0.2 µM. In the case of `C[C@H]1[C@@H](c2cccc(OC(F)(F)F)c2)OC(=O)N1C(=O)CCc1cccc2ccccc12`, the IC50 was 0.04 µM. As for `COc1cc([C@H]2OC(=O)N(C(=O)NCc3cncc4cccnc34)C[C@H]2C)cc(C(F)(F)F)c1`, the figure is 1.26 µM; as for `Cc1cc([C@H]2OC(=O)N(C(=O)CCc3cccc4cnccc34)[C@H]2C)cc(C(F)(F)F)c1`, 0.25 µM; as for `CCOc1cc([C@H]2OC(=O)N(C(=O)NCc3cccc4cncnc34)[C@H]2C)nc(C(F)(F)F)c1`, 0.01 µM.

As to `C[C@H]1[C@@H](c2cc(Br)cc(C(F)(F)F)c2)OC(=O)N1C(=O)CCc1cncc2ccccc12`, the IC50 is 1.49 µM. `COc1cccc([C@H]2OC(=O)N(C(=O)CCc3cncc4ccccc34)[C@H]2C)c1`: the concentration for half-maximal inhibition (IC50) was 1.2 µM.

For `C[C@H]1[C@@H](c2cccc(OC(F)(F)F)c2)OC(=O)N1C(=O)CCc1cncc2ccccc12`, the IC50 is 0.14 µM.

Turning to `C[C@H]1[C@@H](c2cccc(F)c2)OC(=O)N1C(=O)CCc1cncc2ccccc12`, the IC50 is 3 µM. `C[C@H]1[C@@H](c2cc(C(F)(F)F)cc(C(F)(F)F)c2)OC(=O)N1C(=O)CCc1cccc2sccc12`: the IC50 is 0.01 µM. `C[C@@H]1NN(C(=O)NCc2cncc3ccccc23)C(=O)O[C@@H]1c1cc(F)cc(C(F)(F)F)c1`: the half-inhibitory concentration (IC50) is 0.95 µM.

Take `O=C(CCc1cncc2ccccc12)N1CC(c2cccc(F)c2F)OC1=O` (stereo unspecified): the IC50 was 1.2 µM.

With `C[C@H]1[C@@H](c2cc(F)cc(C(F)(F)F)c2)OC(=O)N1C(=O)CCc1cncc2ccccc12`, the IC50 was 0.08 µM. As for `C[C@H]1[C@@H](c2cc(C(F)(F)F)cc(C(F)(F)F)c2)OC(=O)N1C(=O)COc1cccc2ccccc12`, the figure is 0.04 µM; as for `O=C(CCc1cncc2ccccc12)N1CC(c2cc(C(F)(F)F)cc(C(F)(F)F)c2)OC1=O` (stereo unspecified), 0.42 µM; as for `COc1cc(C(F)(F)F)nc([C@@H]2OC(=O)N(C(=O)NCc3cncc4ccccc34)[C@H]2C)n1`, 2.17 µM. As to `Cc1cccc(OCC(=O)N2C(=O)O[C@H](c3cccc(C(F)(F)F)c3)[C@@H]2C)c1C`, the IC50 is 0.68 µM. In the case of `C[C@H]1[C@@H](c2cc(F)c(F)c(F)c2)OC(=O)N1C(=O)CCc1cncc2ccccc12`, the IC50 was 1.81 µM. With `C[C@H]1[C@@H](c2cc(C(F)(F)F)ccn2)OC(=O)N1C(=O)CCc1cncc2ccccc12` the figure was 6.98 µM.

Regarding `C[C@H]1[C@@H](c2cc(C(F)(F)F)cc(C(F)(F)F)c2)OC(=O)N1C(=O)CCc1cccc2ncccc12`, the IC50 was 0.25 µM.

Regarding `C[C@H]1[C@@H](c2ccc(F)c(F)c2)OC(=O)N1C(=O)CCc1cncc2ccccc12`, the IC50 was 4.64 µM. Take `COc1cc([C@H]2OC(=O)N(C(=O)NCc3cccc4cncnc34)[C@H]2CO)cc(C(F)(F)F)c1`: the IC50 was 0.87 µM. Regarding `C=CCOc1cc([C@H]2OC(=O)N(C(=O)NCc3cncc4ccccc34)[C@H]2C)nc(C(F)(F)F)c1`, the IC50 is 0.06 µM.

For the compound `C[C@H]1[C@@H](c2cc(C(F)(F)F)cc(C(F)(F)F)c2)OC(=O)N1C(=O)CCc1cccc2ccncc12`, the IC50 is 0.41 µM.

With `C[C@H]1[C@@H](c2cc(N(C)C)cc(C(F)(F)F)c2)OC(=O)N1C(=O)NCc1cncc2ccccc12`, the IC50 is 0.03 µM. As for `Cc1cc(F)cc([C@H]2OC(=O)N(C(=O)CCc3cncc4ccccc34)[C@H]2C)c1`, the figure is 1.88 µM; as for `C[C@H]1CN(C(=O)NCc2cncc3ccccc23)C(=O)O[C@@H]1c1cc(C(F)(F)F)cc(C(F)(F)F)c1` (single isomer, unassigned), 0.03 µM.

(Values after ChEMBL document CHEMBL5728748 (2021).)
